Data on 1 compound can be found in patent US8735140B2, “Preservation and composition of bioprocess algae for production of lipids, seedstock, and feed” (Kuehnle AgroSystems, Inc., priority 2008, dated 2014).

Holding throughout (assay type): cell-based
Data set [1] has as its system Chlorella (KAS603). As to the kind of experiment: Trehalose preservation, storage by air drying on paper disk. Conditions: for % Viability: 0M control = 100%; for Growth: final/initial density. How it is done: (§1) Flask cultures (40 ml) of cells are grown to mid-log phase with a density between 3×10^6 and 3×10^7 cells/ml, and are centrifuged. Culture medium is removed after centrifugation, resulting in more concentrated algae cells. Cells are then re-suspended in fresh medium and left overnight. Cells are centrifuged again the next day in order to remove the medium, and are then re-suspended in fresh or salt water without any nutrient. The cell density of the suspension is determined prior to storage under the various treatments. Cells in 40 ml flask cultures are grown to mid-log phase with a density of between 3×10^6 and 3×10^7 cells/ml, and are centrifuged. Culture medium is removed after centrifugation, resulting in more concentrated algae cells. Cells are then re-suspended in ideal glass solution consisting of fresh culture medium and trehalose at a concentration of 0.1M, 0.3M, and 0.5M (dihydrate trehalose 100 from Hayashibara Co. Ltd, Okayama, Japan), respectively, and left overnight with mild agitation. Cells are centrifuged again to remove the ideal glass solution the next day, and are re-suspended in fresh or salt water without any nutrient. The cell density of the resulting suspension is determined prior to storage under the various treatments. (Some cells were also treated with a 0.5M sorbitol solution). In one specific embodiment, algae cells can be stored under air-dry conditions using autoclaved sterilized filter paper disks (15 mm Whatman Grade 1, Fisher Scientific 09-805-1B). Specifically, after one piece of paper disk is placed into each well of BD Falcon 12-well tissue culture plates, 0.1 ml algae cell suspension is placed onto each disk. The liquid cell suspension is allowed to air dry in a laminar flow hood for 1 hour. After 1 hour, the plates are closed and placed under low light at ambient temperature. Algae stored under the above preservation conditions for 5 months can be subsequently rejuvenated by removing the paper disks from the 12-well plates and placing cells in 5 ml of fresh medium under light. Cell viability is determined by comparing the cell growth in control set with the experimental set. Specifically, cell counts are performed on all samples. The averaged density value (in cells per ml) for all the cultures after treatment is defined as “rejuvenation cell count.” In some samples, the percent recovery of cells immediately after storage is also determined. The formulae are illustrated as follows: Growth=(rejuvenation cell count)/(initial cell count) Cell recovery after storage=(cell density after storage)/(initial cell density), with controls set at 100% cell recovery. Viability after storage and rejuvenation in nutrient medium=(Growth of treatment)/(Growth of control)×100%, with controls set at 100% viability

For data set [2], the system named is Tetraselmis (KAS633). The description is as above. The settings on record: for % Viability: 0M control = 100%; for Growth: final/initial density. How it is done: as §1
In data set [3] the test system is algal cells. As to the kind of experiment: Trehalose preservation, evaporative drying and rehydration. How it is done: In the experimental set, trehalose supplied from two different manufacturers (Sigma Aldrich Co.; Hayashibara Co.) is used at 0.5 M, 1.0 M, and 2.0 M each, in each of three different media (dH2O, 1M NaCl, 2.75 M NaCl algae media). In the control set, dH2O, 1 M NaCl medium, and 2.75 M NaCl medium are prepared, all lacking trehalose. The starting density of cells used for preliminary experiments is 4.59×10^5 cells/mL. The cells are spun down and re-suspended in trehalose solutions, and further equilibrate overnight at 28° C. Cells are then re-suspended in 10 mL of its corresponding medium and transferred to 25 mL canted neck tissue culture flasks (Falcon Co.). The cultures are allowed to settle and proliferate without shaking under low light (11 μE/m2/sec) for nine days. Cells are counted again to determine whether cells would multiply in each respective medium without intervening sub-culture. […] After a week of drying, all the cells are re-hydrated in 5 mL of 1M NaCl growth medium in the morning and viable cells are counted the same afternoon. […] Viability is determined by growth curves over time, by the percentage of motile cells or by the green appearance as indicative of photosynthetic activity. […]

[4] abbreviates: 0.1M trehalose in F/2, 20 weeks storage in water (no nutrients).
Where [5] appears, read: 0.1M trehalose in F/2, 20 weeks storage.
Setting [6] is: 0.3M trehalose in F/2, 20 weeks storage in water (no nutrients).
[7] abbreviates: 0.3M trehalose in F/2, 20 weeks storage.
The mark [8] stands for this setting: 0.5M trehalose in F/2, 20 weeks storage in water (no nutrients).
Where [9] appears, read: 0.5M trehalose in F/2, 20 weeks storage.

Turning to `OC[C@H]1O[C@H](O[C@H]2O[C@H](CO)[C@@H](O)[C@H](O)[C@H]2O)[C@H](O)[C@@H](O)[C@@H]1O` [trehalose, α-D-glycosyl-α-D-glycosylpyranoside], the “Cell colors on paper/in medium” value in data set [1] (setting [4]) is on record as “Green/green”; in data set [2] (setting [4]), “Green/green”; in data set [2] (setting [8]), “White/clear”. Also, the “Final density after storage and 3 weeks rejuvenation” value in data set [1] (setting [4]) was 2.278 × 10^7 cells/ml; in data set [1] (setting [6]) it was 4.440 × 10^7 cells/ml; in data set [1] (setting [8]), 3.140 × 10^7 cells/ml; in data set [2] (setting [4]) it was 8.60 × 10^6 cells/ml; in data set [2] (setting [6]), 2.15 × 10^6 cells/ml; in data set [2] (setting [8]) it was 1.915 × 10^6 cells/ml. For the same compound, the “% Viability” value is reported as “(133%)” in data set [1] (setting [5]); “(144%)” in data set [1] (setting [7]); “(133)%” in data set [1] (setting [9]); “(80%)” in data set [2] (setting [5]); “(19%)” in data set [2] (setting [7]); “(16%)” in data set [2] (setting [9]). In addition, the Growth in data set [1] (setting [5]) turned out to be 1.433; in data set [1] (setting [7]), 1.55; in data set [1] (setting [9]), 1.43; in data set [2] (setting [5]), 5.51; in data set [2] (setting [7]), 1.32; in data set [2] (setting [9]), 1.10. For the same compound, in data set [3] (after rehydration, light microscope), the “Cell appearance of preserved samples versus controls” value is reported as “No significant differences in cell appearance”. The “Cell viability after a week of drying and re-hydration” value in data set [3] (in 1M NaCl growth medium, compared with Sigma trehalose and other media) is recorded as “best preserved”.
